Source: US20240335443A1, “IMIDAZOLOPYRIDAZINE OR PYRAZOLOPYRIMIDINE COMPOUNDS AND COMPOSITIONS” (Anrui Biomedical Technology (Guangzhou) Co., Ltd., priority 2021, published 2024)

What was measured:
[1] = molecular target: T1, N-terminal His-tagged TYK2 pseudokinase domain (Homo sapiens, UniProt P29597); test: TYK2 JH2 domain SPA binding assay; conditions: displacement of H3 probe (20 nM), 30 min room temperature; class symbols
T1 construct: the N-terminal His-tagged TYK2 pseudokinase domain; His (N); purchased Pharmaron
Description: TYK2 JH2 Domain Binding Assay
After incubating at room temperature for 30 min, the inhibition was calculated by the displacement of [3H] 3 binding as determined by scintillation counting. Dose-response curves were generated to determine the concentration required to inhibit H3 probe binding by […] (IC50).

[2] = system: IL-23 induced STAT3 in HEK-Blue™ IL-23 cells; test: IL-23 induced STAT3 QUANTI-Blue reporter assay in HEK-Blue IL-23 cells; format: cell-based; conditions: HEK-Blue IL-23, HEK-Blue IL-23 cells, IL-23 0.1 ng/mL, SEAP levels; class symbols; read-out: IL23 reporter assay (IC50 nM)
Method in brief: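 HEK-Blue IL-23 cells, 5000/well, preincubated with compound 1 h at 37 °C, then stimulated overnight with IL-23 at 0.1 ng/mL final. Supernatant mixed with QUANTI-Blue for 2 h at 37 °C and secreted SEAP read out.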

T1 sequence (P29597 589-875 limits assumed): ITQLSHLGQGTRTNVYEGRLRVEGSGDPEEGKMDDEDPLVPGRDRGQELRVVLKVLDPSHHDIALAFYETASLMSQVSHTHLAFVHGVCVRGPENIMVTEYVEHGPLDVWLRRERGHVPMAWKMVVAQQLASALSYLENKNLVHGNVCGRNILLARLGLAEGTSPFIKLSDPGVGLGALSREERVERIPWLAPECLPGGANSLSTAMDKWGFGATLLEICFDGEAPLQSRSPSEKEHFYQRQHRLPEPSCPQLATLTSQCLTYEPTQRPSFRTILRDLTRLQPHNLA

SMILES | IC50 [1] [nM] | IC50 [2] [nM]
CNc1cc(Nc2cccn([C@H]3CCCOC3)c2=O)nn2c(C(=O)N[C@@H]3C[C@H]4CCO[C@H]43)cnc12 [Compound 65] | 10 to 100 | < 10
CNc1cc(Nc2cccn(C3CCOCC3)c2=O)nn2c(C(=O)N[C@@H]3C[C@H]4CCO[C@H]43)cnc12 [Compound 66] | 10 to 100 | < 10
[2H]C([2H])([2H])Nc1cc(Nc2cccn([C@H]3CC[C@H](OC([2H])([2H])[2H])CC3)c2=O)nn2c(C(=O)N[C@@H]3C[C@@H]3F)cnc12 [Compound 69] | 10 to 100 | < 10
CNc1cc(Nc2cccn([C@H]3CC[C@@H](OC)CC3)c2=O)nn2c(C(=O)N[C@@H]3C[C@@H]3F)cnc12 [Compound 70] | 10 to 100 | 10 to 100
[2H]C([2H])([2H])Nc1cc(Nc2cccn([C@H]3CC[C@@H](OC([2H])([2H])[2H])CC3)c2=O)nn2c(C(=O)N[C@@H]3C[C@@H]3F)cnc12 [Compound 72] | 10 to 100 | < 10
CNc1cc(Nc2cccn(C3CCC4(CC3)COC4)c2=O)nn2c(C(=O)N[C@@H]3C[C@@H]3F)cnc12 [Compound 73] | 10 to 100 | < 10
CNc1cc(Nc2cccn(C3C[C@H]4CC[C@@H](C3)O4)c2=O)nc2c(C(=O)N[C@@H]3C[C@H]4CCO[C@H]43)cnn12 (stereo partly drawn) [Compound 76] | 10 to 100 | 10 to 100
[2H]C([2H])([2H])Nc1cc(Nc2cccn(C3C[C@H]4CC[C@@H](C3)O4)c2=O)nn2c(C(=O)N[C@@H]3C[C@@H]3F)cnc12 (stereo partly drawn) [Compound 80] | 10 to 100 | 10 to 100
CNc1cc(Nc2cccn(C3C[C@H]4CC[C@@H](C3)O4)c2=O)nc2c(C(=O)N[C@@H]3C[C@@H]3F)cnn12 (stereo partly drawn) [Compound 81] | 10 to 100 | 10 to 100
CNc1cc(Nc2cccn([C@H]3C[C@H](OC)C3)c2=O)nn2c(C(=O)N[C@@H]3C[C@H]4CCO[C@H]43)cnc12 [Compound 82] | 10 to 100 | < 10
[2H]C([2H])([2H])O[C@H]1C[C@H](n2cccc(Nc3cc(NC)c4ncc(C(=O)N[C@@H]5C[C@H]6CCO[C@H]65)n4n3)c2=O)C1 [Compound 83] | 10 to 100 | 10 to 100
[2H]C([2H])([2H])Nc1cc(Nc2cccn([C@H]3C[C@H](OC([2H])([2H])[2H])C3)c2=O)nn2c(C(=O)N[C@@H]3C[C@H]4CCO[C@H]43)cnc12 [Compound 84] | 10 to 100 | 10 to 100

Continued, in another order:

IC50 [1] [nM] | SMILES | IC50 [2] [nM]
10 to 100 | CNc1cc(Nc2cccn([C@H]3C[C@@H](OC)C3)c2=O)nn2c(C(=O)N[C@@H]3C[C@H]4CCO[C@H]43)cnc12 [Compound 85] | 10 to 100
10 to 100 | [2H]C([2H])([2H])O[C@H]1C[C@@H](n2cccc(Nc3cc(NC)c4ncc(C(=O)N[C@@H]5C[C@H]6CCO[C@H]65)n4n3)c2=O)C1 [Compound 86] | 10 to 100
10 to 100 | [2H]C([2H])([2H])Nc1cc(Nc2cccn([C@H]3C[C@@H](OC([2H])([2H])[2H])C3)c2=O)nn2c(C(=O)N[C@@H]3C[C@H]4CCO[C@H]43)cnc12 [Compound 87] | 10 to 100
10 to 100 | [2H]C([2H])([2H])Nc1cc(Nc2cccn([C@H]3C[C@H](OC(F)(F)F)C3)c2=O)nn2c(C(=O)N[C@@H]3C[C@H]4CCO[C@H]43)cnc12 [Compound 89] | 10 to 100
10 to 100 | CNc1cc(Nc2cccn([C@H]3C[C@H](F)C3)c2=O)nn2c(C(=O)N[C@@H]3C[C@H]4CCO[C@H]43)cnc12 [Compound 90] | 10 to 100
10 to 100 | CNc1cc(Nc2cccn([C@H]3C[C@H](OC)C3)c2=O)nn2c(C(=O)N[C@@H]3C[C@@H]3F)cnc12 [Compound 99] | 10 to 100
10 to 100 | [2H]C([2H])([2H])Nc1cc(Nc2cccn([C@H]3C[C@H](OC([2H])([2H])[2H])C3)c2=O)nc2c(C(=O)N[C@@H]3C[C@@H]3F)cnn12 [Compound 100] | 10 to 100
< 10 | [2H]C([2H])([2H])Nc1cc(Nc2cccn([C@@H]3C[C@H]4CCO[C@H]43)c2=O)nn2c(C(=O)N[C@@H]3C[C@@H]3F)cnc12 [Compound 106] | < 10
10 to 100 | CNc1cc(Nc2cccn(CC3CCCO3)c2=O)nn2c(C(=O)N[C@@H]3C[C@@H]3F)cnc12 (stereo partly drawn) [Compound 107] | 10 to 100
